Measured values as given in article PMC12007285 (Microbial Cell Factories, 2025).

Tests used:
[1] = system: RsNpcB (reductase component of two-component p-nitrophenol monooxygenase RsNcpAB); experiment: NADH/NADPH oxidation at […] nm; format: biochemical, Rhodococcus sp. 21391; settings: 50 mM Tris–HCl pH 7.5, 25 °C
[2] = target: p-nitrophenol monooxygenase oxidizing component RsNpcA (Rhodococcus sp. 21391) (UniProt Q6F4M8); experiment: SEC

For `Cc1cc2nc3c(=O)[nH]c(=O)nc-3n(C[C@H](O)[C@H](O)[C@H](O)COP(=O)(O)OP(=O)(O)OC[C@H]3O[C@@H](n4cnc5c(N)ncnc54)[C@H](O)[C@@H]3O)c2cc1C` [FAD], which Km ([1]; 200 μM NADH, FAD varied 0.2–1.0 μM) is on record?
Its Km is 0.11 ± 0.02 µM.

Which Km ([1]; 200 μM NADH, FMN varied 0.2–1.0 μM) does the source give for `Cc1cc2nc3c(=O)[nH]c(=O)nc-3n(C[C@H](O)[C@H](O)[C@H](O)COP(=O)(O)O)c2cc1C` [FMN] here?
Its Km is 0.02 ± 0.007 µM.

How did the Km ([1]; 20 μM FAD, NADH varied 20–220 μM) turn out when `NC(=O)C1=CN([C@@H]2O[C@H](COP(=O)(O)OP(=O)(O)OC[C@H]3O[C@@H](n4cnc5c(N)ncnc54)[C@H](O)[C@@H]3O)[C@@H](O)[C@H]2O)C=CC1` [NADH] was run?
The Km was 45.5 ± 10.8 µM.

How did the Km ([1]; 20 μM FAD, NADPH varied 20–220 μM) turn out when `NC(=O)C1=CN([C@@H]2O[C@H](COP(=O)(O)OP(=O)(O)OC[C@H]3O[C@@H](n4cnc5c(N)ncnc54)[C@H](OP(=O)(O)O)[C@@H]3O)[C@@H](O)[C@H]2O)C=CC1` [NADPH] was run?
Its Km is 16.4 ± 4.62 µM.

For “p-nitrophenol monooxygenase oxidizing component RsNpcA (from UniProt Q6F4M8 1-528) (enzyme)”, which stoichiometry N [2] is on record?
Its stoichiometry N is 4.
